Experimental data published in ChEMBL document CHEMBL1130815, “Anti-Helicobacter pylori agents. 2. Structure activity relationships in a new series of 2-alkylguanidino-4-furylthiazoles” (1998).
≈ marks a conversion by molar mass, not a printed value.

Key:
Helicobacter pylori = assay: Compound was evaluated for antimicrobial activity against Helicobacter pylori; format: functional
Bacteroides fragilis = assay: Compound was evaluated for antimicrobial activity against Bacteroides fragilis; format: functional
Clostridium perfringens = assay: Compound was evaluated for antimicrobial activity against Clostridium perfringens; format: functional
Campylobacter jejuni = assay: Compound was evaluated for antimicrobial activity against Campylobacter jejuni; format: functional
Clostridioides difficile = assay: Compound was evaluated for antimicrobial activity against Clostridium difficile; format: functional
Neisseria gonorrhoeae = assay: Compound was evaluated for antimicrobial activity against Neisseria gonorrhoeae; format: functional
Neisseria meningitidis = assay: Compound was evaluated for antimicrobial activity against Neisseria meningitidis; format: functional
Canis familiaris = assay: Compound was evaluated for the inhibition of gastrin-stimulated gastric acid secretion in conscious heidenhain pouch dogs when administered 1 mg/kg perorally; format: functional; settings: Canis lupus familiaris, Stomach, route oral
Cavia porcellus = organism: Cavia porcellus; assay: Inhibition of histamine-stimulated chronotropic response in the isolated guinea pig right atrium at 1*10e-6 g/mL; format: functional, Cardiac atrium
Rattus norvegicus = assay: Inhibition of histamine-stimulated gastric acid secretion in lumen-perfused stomach of the anaesthetized rats when administered 1 mg/kg intravenously; format: functional; settings: route intravenous

CC(=O)NCc1ccc(-c2csc(NC(=N)NCCO)n2)o1
MIC (Helicobacter pylori): 34 µg/mL (≈ 105 µM)

BISMUTH SUBSALICYLATE
MIC (Bacteroides fragilis): 50 µg/mL | MIC (Clostridium perfringens): > 100 µg/mL | MIC (Campylobacter jejuni): 7.4 µg/mL | MIC (Clostridioides difficile): 50 µg/mL | MIC (Helicobacter pylori): 8.7 µg/mL | MIC (Neisseria gonorrhoeae): 4.7 µg/mL | MIC (Neisseria meningitidis): 12.5 µg/mL

C=CCNC(=N)Nc1nc(-c2ccc(CNC(C)=O)o2)cs1
MIC (Helicobacter pylori): 1.45 µg/mL (≈ 4.54 µM)

C#CCNC(=N)Nc1nc(-c2ccc(CNC(C)=O)o2)cs1
MIC (Helicobacter pylori): 8.2 µg/mL (≈ 25.8 µM)

CSCC/N=C(\N)Nc1nc(-c2ccc(CNC(C)=O)o2)cs1
MIC (Helicobacter pylori): 1.67 µg/mL (≈ 4.72 µM)

Cc1ncc([N+](=O)[O-])n1CCO [METRONIDAZOLE]
MIC (Bacteroides fragilis): 0.59 µg/mL (≈ 3.45 µM) | MIC (Clostridium perfringens): 1.75 µg/mL (≈ 10.2 µM) | MIC (Campylobacter jejuni): 30 µg/mL (≈ 175 µM) | MIC (Clostridioides difficile): 0.2 µg/mL (≈ 1.17 µM) | MIC (Helicobacter pylori): 5.4 µg/mL (≈ 31.6 µM) | MIC (Neisseria gonorrhoeae): > 100 µg/mL | MIC (Neisseria meningitidis): > 100 µg/mL

CC1(C)S[C@@H]2[C@H](NC(=O)[C@H](N)c3ccc(O)cc3)C(=O)N2[C@H]1C(=O)O [AMOXICILLIN]
MIC (Bacteroides fragilis): 2.1 µg/mL (≈ 5.75 µM) | MIC (Clostridium perfringens): 0.027 µg/mL (≈ 0.0739 µM) | MIC (Campylobacter jejuni): 2.2 µg/mL (≈ 6.02 µM) | MIC (Clostridioides difficile): 0.28 µg/mL (≈ 0.766 µM) | MIC (Helicobacter pylori): 0.021 µg/mL (≈ 0.0575 µM) | MIC (Neisseria gonorrhoeae): 7.7 µg/mL (≈ 21.1 µM) | MIC (Neisseria meningitidis): 0.056 µg/mL (≈ 0.153 µM)

CC(=O)NCc1ccc(-c2csc(NC(=N)NCCN3CCCCC3)n2)o1
MIC (Helicobacter pylori): 27 µg/mL (≈ 69.1 µM)

COCC/N=C(\N)Nc1nc(-c2ccc(CNC(C)=O)o2)cs1
MIC (Helicobacter pylori): 1.45 µg/mL (≈ 4.3 µM)

CC(=O)NCc1ccc(-c2csc(NC(=N)NC3CCCCC3)n2)o1
MIC (Helicobacter pylori): 1.06 µg/mL (≈ 2.93 µM)

CCOCCCC/N=C(\N)Nc1nc(-c2ccc(CNC(C)=O)o2)cs1
MIC (Helicobacter pylori): 1.1 µg/mL (≈ 2.9 µM)

CCCCOCC/N=C(\N)Nc1nc(-c2ccc(CNC(C)=O)o2)cs1
MIC (Helicobacter pylori): 1.43 µg/mL (≈ 3.77 µM)

CCOCC/N=C(\NCCOCC)Nc1nc(-c2ccc(CNC(C)=O)o2)cs1
MIC (Helicobacter pylori): 81 µg/mL (≈ 191 µM)

CC(=O)NCc1ccc(-c2csc(NC(=N)NCC3CC3)n2)o1
MIC (Helicobacter pylori): 1.46 µg/mL (≈ 4.38 µM)

CN/C(=N\CCSCc1nc[nH]c1C)NC#N [CIMETIDINE]
inhibition in vivo at 1 mg/kg (Canis familiaris): 53% | Inhibition (Cavia porcellus): 43% | inhibition in vivo at 1 mg/kg (Rattus norvegicus): 22%
